Data taken from patent US12691112B2, “FGFR tyrosine kinase inhibitors for the treatment of urothelial carcinoma” (Janssen Pharmaceutica NV, priority 2019, dated 2026).
Like-named read-outs stand apart in the source and are kept apart here.

Tested on: subjects with metastatic or surgically unresectable urothelial cancer
Conditions: all-causality

COc1cc(OC)cc(N(CCNC(C)C)c2ccc3ncc(-c4cnn(C)c4)nc3c2)c1 [erdafitinib, N-(3,5-dimethoxy-phenyl)-N′-(1-methylethyl)-N-[3-(1-methyl-1H-pyrazol-4-yl)quinoxalin-6-yl]ethane-1,2-diamine]
24 no.: Diarrhea, grade 1 (6 mg continuous, n = 78)
20 no.: Constipation, any grade (6 mg continuous, n = 78) | Fatigue, any grade (6 mg continuous, n = 78) | Anemia, any grade (8 mg continuous, n = 99) | Asthenia, any grade (8 mg continuous, n = 99)
15 no.: Diarrhea, grade 2 (6 mg continuous, n = 78)
13 no.: Decreased appetite, grade 2 (6 mg continuous, n = 78) | Hand-foot syndrome, any grade (6 mg continuous, n = 78) | Lacrimation increased, any grade (6 mg continuous, n = 78) | Onycholysis, any grade (6 mg continuous, n = 78) | Stomatitis, grade 1 (6 mg continuous, n = 78) | Stomatitis, grade 2 (6 mg continuous, n = 78) | Urinary tract infection, any grade (6 mg continuous, n = 78) | Alanine aminotransferase increased, grade 1 (8 mg continuous, n = 99) | Conjunctivitis, any grade (8 mg continuous, n = 99)
0 no.: Constipation, grade ≥ 3 (6 mg continuous, n = 78) | Diarrhea, grade ≥ 3 (6 mg continuous, n = 78) | Dry skin, grade ≥ 3 (6 mg continuous, n = 78) | Dysgeusia, grade ≥ 3 (6 mg continuous, n = 78) | Dyspepsia, grade ≥ 3 (6 mg continuous, n = 78) | Hand-foot syndrome, grade ≥ 3 (6 mg continuous, n = 78) | Hematuria, grade 2 (6 mg continuous, n = 78) | Hyperphosphatemia, grade ≥ 3 (6 mg continuous, n = 78) | Hypomagnesemia, grade 2 (6 mg continuous, n = 78) | Hypomagnesemia, grade ≥ 3 (6 mg continuous, n = 78) | Hyponatremia, grade 2 (6 mg continuous, n = 78) | Lacrimation increased, grade ≥ 3 (6 mg continuous, n = 78) | Nail dystrophy, grade ≥ 3 (6 mg continuous, n = 78) | Onychomadesis, grade ≥ 3 (6 mg continuous, n = 78) | Oropharyngeal pain, grade ≥ 3 (6 mg continuous, n = 78) | Paronychia, grade ≥ 3 (6 mg continuous, n = 78) | Retinal detachment, grade ≥ 3 (6 mg continuous, n = 78) | Urinary tract infection, grade 1 (6 mg continuous, n = 78) | Vomiting, grade ≥ 3 (6 mg continuous, n = 78) | Alopecia, grade ≥ 3 (8 mg continuous, n = 99) | Arthralgia, grade ≥ 3 (8 mg continuous, n = 99) | Aspartate aminotransferase increased, grade ≥ 3 (8 mg continuous, n = 99) | Back pain, grade ≥ 3 (8 mg continuous, n = 99) | Blood creatinine increased, grade ≥ 3 (8 mg continuous, n = 99) | Conjunctivitis, grade ≥ 3 (8 mg continuous, n = 99)
31 no.: Dry mouth, any grade (6 mg continuous, n = 78)
7 no.: Hyponatremia, any grade (6 mg continuous, n = 78) | Nail dystrophy, any grade (6 mg continuous, n = 78) | Stomatitis, grade ≥ 3 (6 mg continuous, n = 78) | Anemia, grade 2 (8 mg continuous, n = 99) | Asthenia, grade ≥ 3 (8 mg continuous, n = 99) | Conjunctivitis, grade 2 (8 mg continuous, n = 99)
10 no.: Constipation, grade 1 (6 mg continuous, n = 78) | Constipation, grade 2 (6 mg continuous, n = 78) | Dry skin, grade 1 (6 mg continuous, n = 78) | Dysgeusia, any grade (6 mg continuous, n = 78) | Lacrimation increased, grade 1 (6 mg continuous, n = 78) | Paronychia, grade 2 (6 mg continuous, n = 78) | Aspartate aminotransferase increased, any grade (8 mg continuous, n = 99) | Blood creatinine increased, any grade (8 mg continuous, n = 99)
23 no.: Dry mouth, grade 1 (6 mg continuous, n = 78) | Alopecia, grade 1 (8 mg continuous, n = 99)
5 no.: Hematuria, grade 1 (6 mg continuous, n = 78) | Hyponatremia, grade ≥ 3 (6 mg continuous, n = 78) | Onycholysis, grade ≥ 3 (6 mg continuous, n = 78) | Oropharyngeal pain, grade 1 (6 mg continuous, n = 78) | Retinal detachment, grade 1 (6 mg continuous, n = 78) | Vision blurred, any grade (6 mg continuous, n = 78) | Abdominal pain, grade 1 (8 mg continuous, n = 99) | Arthralgia, grade 1 (8 mg continuous, n = 99) | Back pain, any grade (8 mg continuous, n = 99) | Blood creatinine increased, grade 1 (8 mg continuous, n = 99) | Blood creatinine increased, grade 2 (8 mg continuous, n = 99)
17 no.: Alanine aminotransferase increased, any grade (8 mg continuous, n = 99)
29 no.: Decreased appetite, any grade (6 mg continuous, n = 78) | Alopecia, any grade (8 mg continuous, n = 99)
28 no.: Constipation, any grade (8 mg continuous, n = 99)
18 no.: Dry skin, any grade (6 mg continuous, n = 78)
19 no.: Constipation, grade 1 (8 mg continuous, n = 99)
33 no.: Stomatitis, any grade (6 mg continuous, n = 78)
16 no.: Nausea, any grade (6 mg continuous, n = 78)
14 no.: Pyrexia, any grade (6 mg continuous, n = 78)
9 no.: Dyspepsia, any grade (6 mg continuous, n = 78) | Hand-foot syndrome, grade 2 (6 mg continuous, n = 78) | Pain in extremity, any grade (6 mg continuous, n = 78) | Urinary tract infection, grade 2 (6 mg continuous, n = 78) | Vomiting, grade 1 (6 mg continuous, n = 78) | Anemia, grade 1 (8 mg continuous, n = 99)
39 no.: Diarrhea, any grade (6 mg continuous, n = 78)
44 no.: Hyperphosphatemia, grade 1 (6 mg continuous, n = 78)
6 no.: Dry eye, any grade (6 mg continuous, n = 78) | Dry mouth, grade 2 (6 mg continuous, n = 78) | Dysgeusia, grade 1 (6 mg continuous, n = 78) | Dyspepsia, grade 1 (6 mg continuous, n = 78) | Dyspnea, any grade (6 mg continuous, n = 78) | Hematuria, any grade (6 mg continuous, n = 78) | Hypomagnesemia, any grade (6 mg continuous, n = 78) | Hypomagnesemia, grade 1 (6 mg continuous, n = 78) | Nail dystrophy, grade 1 (6 mg continuous, n = 78) | Onycholysis, grade 2 (6 mg continuous, n = 78) | Onychomadesis, grade 2 (6 mg continuous, n = 78) | Pain in extremity, grade 2 (6 mg continuous, n = 78) | Peripheral edema, any grade (6 mg continuous, n = 78) | Alopecia, grade 2 (8 mg continuous, n = 99) | Conjunctivitis, grade 1 (8 mg continuous, n = 99)
2 no.: Dry eye, grade 2 (6 mg continuous, n = 78) | Dry mouth, grade ≥ 3 (6 mg continuous, n = 78) | Dyspnea, grade ≥ 3 (6 mg continuous, n = 78) | Hyponatremia, grade 1 (6 mg continuous, n = 78) | Insomnia, grade 2 (6 mg continuous, n = 78) | Insomnia, grade ≥ 3 (6 mg continuous, n = 78) | Onycholysis, grade 1 (6 mg continuous, n = 78) | Onychomadesis, grade 1 (6 mg continuous, n = 78) | Pain in extremity, grade 1 (6 mg continuous, n = 78) | Paronychia, grade 1 (6 mg continuous, n = 78) | Peripheral edema, grade 1 (6 mg continuous, n = 78) | Vomiting, grade 2 (6 mg continuous, n = 78) | Weight decreased, grade 2 (6 mg continuous, n = 78) | Weight decreased, grade ≥ 3 (6 mg continuous, n = 78) | Abdominal pain, grade 2 (8 mg continuous, n = 99) | Alanine aminotransferase increased, grade 2 (8 mg continuous, n = 99) | Alanine aminotransferase increased, grade ≥ 3 (8 mg continuous, n = 99) | Aspartate aminotransferase increased, grade 2 (8 mg continuous, n = 99) | Asthenia, grade 1 (8 mg continuous, n = 99)
12 no.: Decreased appetite, grade 1 (6 mg continuous, n = 78) | Paronychia, any grade (6 mg continuous, n = 78)
1 no.: Conjunctivitis, grade ≥ 3 (6 mg continuous, n = 78) | Dry eye, grade ≥ 3 (6 mg continuous, n = 78) | Dyspnea, grade 1 (6 mg continuous, n = 78) | Hematuria, grade ≥ 3 (6 mg continuous, n = 78) | Nail dystrophy, grade 2 (6 mg continuous, n = 78) | Nausea, grade ≥ 3 (6 mg continuous, n = 78) | Pain in extremity, grade ≥ 3 (6 mg continuous, n = 78) | Peripheral edema, grade ≥ 3 (6 mg continuous, n = 78) | Vision blurred, grade 2 (6 mg continuous, n = 78) | Vision blurred, grade ≥ 3 (6 mg continuous, n = 78) | Abdominal pain, grade ≥ 3 (8 mg continuous, n = 99) | Back pain, grade 2 (8 mg continuous, n = 99)
3 no.: Dry eye, grade 1 (6 mg continuous, n = 78) | Dyspepsia, grade 2 (6 mg continuous, n = 78) | Dyspnea, grade 2 (6 mg continuous, n = 78) | Lacrimation increased, grade 2 (6 mg continuous, n = 78) | Oropharyngeal pain, grade 2 (6 mg continuous, n = 78) | Peripheral edema, grade 2 (6 mg continuous, n = 78) | Pyrexia, grade 2 (6 mg continuous, n = 78) | Pyrexia, grade ≥ 3 (6 mg continuous, n = 78) | Retinal detachment, grade 2 (6 mg continuous, n = 78) | Vision blurred, grade 1 (6 mg continuous, n = 78) | Arthralgia, grade 2 (8 mg continuous, n = 99)
8 no.: Dry skin, grade 2 (6 mg continuous, n = 78) | Fatigue, grade 1 (6 mg continuous, n = 78) | Fatigue, grade 2 (6 mg continuous, n = 78) | Hyperphosphatemia, grade 2 (6 mg continuous, n = 78) | Insomnia, any grade (6 mg continuous, n = 78) | Onychomadesis, any grade (6 mg continuous, n = 78) | Oropharyngeal pain, any grade (6 mg continuous, n = 78) | Pyrexia, grade 1 (6 mg continuous, n = 78) | Retinal detachment, any grade (6 mg continuous, n = 78) | Weight decreased, any grade (6 mg continuous, n = 78) | Abdominal pain, any grade (8 mg continuous, n = 99) | Arthralgia, any grade (8 mg continuous, n = 99) | Aspartate aminotransferase increased, grade 1 (8 mg continuous, n = 99) | Constipation, grade 2 (8 mg continuous, n = 99)
11 no.: Nausea, grade 1 (6 mg continuous, n = 78) | Vomiting, any grade (6 mg continuous, n = 78) | Asthenia, grade 2 (8 mg continuous, n = 99)
4 no.: Decreased appetite, grade ≥ 3 (6 mg continuous, n = 78) | Dysgeusia, grade 2 (6 mg continuous, n = 78) | Fatigue, grade ≥ 3 (6 mg continuous, n = 78) | Hand-foot syndrome, grade 1 (6 mg continuous, n = 78) | Insomnia, grade 1 (6 mg continuous, n = 78) | Nausea, grade 2 (6 mg continuous, n = 78) | Urinary tract infection, grade ≥ 3 (6 mg continuous, n = 78) | Weight decreased, grade 1 (6 mg continuous, n = 78) | Anemia, grade ≥ 3 (8 mg continuous, n = 99) | Back pain, grade 1 (8 mg continuous, n = 99)
52 no.: Hyperphosphatemia, any grade (6 mg continuous, n = 78)
